One series concerns SCLC. As to conditions: six SCLC patients; no response on CT scans; cited from earlier work. From the text:
An alternative therapeutic approach for extended-stage disease could be peptide-receptor radionuclide therapy (PRRT) with somatostatin receptor (SSTR) ligands. The vast majority of SCLC (> 80%) express neuroendocrine markers, and about 50% of all SCLCs express significant levels of somatostatin-receptor type 2 (SSTR2). […] To date, clinical outcomes of retrospective series, which investigated SSTR2-targeted PRRT in SCLC have been rather inconclusive. In one trial, six patients treated with ^90Y-D ...

Series [1] relates to H446 cells. Put plainly: Cell viability, AlamarBlue HS assay. Conditions: Homo sapiens, NCI-H446, PARPi alone for 72 h, 3 independent experiments. The format is cell-based. The protocol: (§1) Cell viability was determined using the AlamarBlue high sensitivity (HS) assay (Thermo Fisher Scientific, #A50101). 5,000 cells per well were seeded in 96-well black clear F-bottom plates (H446) or 96-well black clear V-bottom plates (H69). H69 suspension cells were centrifuged and resuspended for each washing step. […] All wells, including untreated wells, contained 0.5% (v/v) DMSO throughout the assay. 96 h after seeding, medium was removed and resazurin (AlamarBlue HS) solution was added to each well at a final concentration of 10% (v/v) and incubated for 1 h at 37 °C before fluorescence was measured using a Biotek Synergy HT plate reader (Excitation: 540/35 nm, Emission: 590/20 nm). Relative viability was calculated in relation to “untreated” wells. We carried out three biological repeats with 3–6 technical replicates per plate. IC50-values were computed by applying the nonlinear regression function (Dose–response – Inhibition; Inhibitor vs. normalized response) in GraphPad Prism 9.

For another series, the system named is H69 cells. Put plainly: Cell viability, AlamarBlue HS assay. As to conditions: Homo sapiens, NCI-H69, PARPi alone for 72 h, 3 independent experiments. The format is cell-based. On the procedure: as §1
The subject of series [2] is H446 cells. Put plainly: Clonogenic assay. As to conditions: 0.5 µM PARPi 72 h and/or 12.5 kBq [177Lu]Lu-DOTA-TOC 24 h, colonies after 7 days, mean of 2 independent experiments. It counts as cell-based, human. On the procedure:
H446 cells were seeded in 6-well plates 48 h prior to the experiment. […] Following treatment, compounds were removed, and fresh medium was added. After 7 days, colonies were fixed with cold methanol, stained with 5% crystal violet in PBS and subsequently counted. Survival fractions were calculated by dividing the plating efficiency as counted colonies divided by seeded cells of the respective treatment group through the plating efficiency of the untreated control group.

The test system of series [3] is H69 xenografts. Put plainly: In vivo treatment study, single PRRT dose. Conditions: for tumor doubling time: PARPi 10 mg/kg i.p. days 1–5 and 8–12, PRRT ~40 MBq single dose on day 3, untreated 3.6 days; for time after start of treatment to mean tumor volume of 400 mm^3: untreated 10 days. Further details: species or system athymic nude mice. On the procedure: Authorization for all animal experiments was obtained from the Regierung von Oberbayern. Mice were housed under specific-pathogen free conditions with access to mouse chow and water ad libitum. […] Animals were regularly monitored as defined in the license.
Mice in the PARPi and combination therapy groups received daily i.p. injections of PARPi on days 1–5 and 8–12 at a dose of 10 mg/kg. […] Length, width and depth of the subcutaneous tumors were measured daily using a caliper and tumor volume was calculated using the ellipsoid formula. Mice were weighed regularly after start of the treatment. Mice were euthanized when they reached pre-defined criteria. […] In the H69 cohort, one animal per group was euthanized 3 days after PRRT (or equivalent time) and tumor, bone and kidney tissues were processed for histopathology.

The subject of the next series is H446 xenografts. Briefly: In vivo treatment study, single PRRT dose. Conditions: for tumor doubling time: PARPi 10 mg/kg i.p. days 1–5 and 8–12, PRRT ~40 MBq single dose on day 3, untreated 3.6; for median survival: single PRRT dose study, untreated 12 days. The arrangement: species or system athymic nude mice. On the procedure:
(§2) Authorization for all animal experiments was obtained from the Regierung von Oberbayern. Mice were housed under specific-pathogen free conditions with access to mouse chow and water ad libitum. Female 7–8 weeks old athymic nude mice (Crl:NU/NCr-Foxn1nu, Charles River Laboratories, Sulzfeld) were subcutaneously injected with 1–4 × 10^6 H69 or H446 cells in 1:1 RPMI-1640 medium:Matrigel (Corning Inc., #11543550). Animals were regularly monitored as defined in the license.
(§3) 10–15 days after xenografting, mice were randomized into 4 (H446) or 6 (H69) groups after stratification for tumor size to ensure a uniform initial tumor size distribution (H446: ~ 150 mm^3; H69: ~ 60 mm^3; Supplementary Fig. 2A, B). Mice in the PARPi and combination therapy groups received daily i.p. injections of PARPi on days 1–5 and 8–12 at a dose of 10 mg/kg. […] Length, width and depth of the subcutaneous tumors were measured daily using a caliper and tumor volume was calculated using the ellipsoid formula. Mice were weighed regularly after start of the treatment. Mice were euthanized when they reached pre-defined criteria. During the study, only the criteria of tumor growth (single dimension ≤ 15 mm) or maximum observation time came into effect. In the H69 cohort, one animal per group was euthanized 3 days after PRRT (or equivalent time) and tumor, bone and kidney tissues were processed for histopathology.

The subject of the next series is bone marrow and kidney. Briefly: Histopathology (H&E) after in vivo treatment. Further details: species or system athymic nude mice. Conditions: H69 cohort, single dose study; day 3 after PRRT; one animal per group. The protocol:
as §3
All samples were fixated in 4% PFA for 24 h and subsequently stored in 70% ethanol at 4 °C until the radioactivity had fully decayed. Samples containing bone for bone marrow analysis were decalcified using OSTEOSOFT® (Merck) solution. Formalin-fixed paraffin embedded (FFPE) tissues were cut into 2 µm sections using a microtome. After deparaffinization and rehydration, tissue sections were subjected to standard H&E staining. Tumor sections were additionally subjected to IHC. […]

The subject of series [4] is H69 xenografts. Put plainly: In vivo treatment study, fractionated PRRT dose. Further details: species or system athymic nude mice. Conditions: three-fractionated arm: 3 × 20 MBq PRRT days 3, 9, 15, Olaparib 10 mg/kg i.p. days 1–5, 7–11, 13–17, untreated 27 days. On the procedure:
as §2
Prior to the beginning of treatment, mice were randomly assigned to 7 treatment groups (n = 5–6 animals/group) with an initial mean tumor volume of approx. 50 mm^3 per group (Supplementary Fig. 2C). […] Body weight and tumor volumes were determined every 2–3 days. Animals were sacrificed when pre-defined endpoint criteria or humane endpoint was reached. In this study, only the pre-defined endpoint, a tumor volume of 1000 mm^3 with a maximal size of ≤ 15 mm in a single dimension, was reached. After a maximum observation period of 4 weeks after the last treatment, the study terminated in accordance with the animal protocol.

The structures appear in SMILES notation.

As for `C[C@@H](O)[C@@H]1NC(=O)[C@H](CCCCN)NC(=O)[C@@H](Cc2c[nH]c3ccccc23)NC(=O)[C@H](Cc2ccc(O)cc2)NC(=O)[C@@H](NC(=O)[C@@H](Cc2ccccc2)NC(=O)CN2CCN(CC(=O)[O-])CCN(CC(=O)[O-])CCN(CC(=O)[O-])CC2)CSSC[C@@H](C(=O)N[C@H](CO)[C@@H](C)O)NC1=O.[90Y+3]` [^90Y-DOTATOC], the median progression-free survival with SCLC is reported as 38 days.

In the case of `O=C(c1cc(Cc2n[nH]c(=O)c3ccccc23)ccc1F)N1CCN(C(=O)C2CC2)CC1` [Olaparib], the 50% inhibitory concentration (IC50) with H446 cells [1] and in the series on H69 cells was 20 to 40 µM in each case. In addition, the “mean surviving fraction, of untreated cells” value with H446 cells [2] was found to be 7%. For the same compound, the tumor doubling time with H69 xenografts [3] is 4.0 days. For the same compound, the “time after start of treatment to mean tumor volume of 400 mm^3” value (shortened to “time after start of treatment”) with H69 xenografts [3] (single PRRT dose study) amounted to 13 days.

With `CNCc1ccc(-c2[nH]c3cc(F)cc4c3c2CCNC4=O)cc1` [Rucaparib], in the series on H446 cells [1], the half-maximal inhibitory concentration (IC50) was in the range of 20 to 40 µM. Further, the half-inhibitory concentration (IC50) with H69 cells is 20 to 40 µM. For the same compound, the “mean surviving fraction, of untreated cells” value in the series on H446 cells [2] came to 13%. Moreover, the tumor doubling time with H69 xenografts [3] is reported as 4.1 days. The “time after start of treatment” value in the series with H69 xenografts [3] (single PRRT dose study) was 13 days. In the series with H446 xenografts, the tumor doubling time is 3.9 days and the median survival is 13 days. Also, in the series on bone marrow and kidney, the “angiectasis in the bone marrow (H&E)” value is on record as “low levels of angiectasis” and the “bone marrow cellularity (H&E)” value is recorded as “slight bone marrow hypercellularity”.

Consider `C[C@@H](O)[C@@H]1NC(=O)[C@H](CCCCN)NC(=O)[C@@H](Cc2c[nH]c3ccccc23)NC(=O)[C@H](Cc2ccc(O)cc2)NC(=O)[C@@H](NC(=O)[C@@H](Cc2ccccc2)NC(=O)CN2CCN(CC(=O)O)CCN(CC(=O)O)CCN(CC(=O)O)CC2)CSSC[C@@H](C(=O)N[C@H](CO)[C@@H](C)O)NC1=O` [[^177Lu]Lu-DOTA-TOC, metal not drawn], for which the tumor doubling time in the series on H69 xenografts [3] worked out at 6.4 days; in the series on H446 xenografts, 3.7 days. Moreover, the “time after start of treatment” value in the series on H69 xenografts [3] (single PRRT dose study) is listed as 17 days. The median survival in the series on H69 xenografts [3] (single PRRT dose study, untreated 18 days) is listed as 24 days; in the series with H446 xenografts it was 11 days; in the series with H69 xenografts [4], 34 days.

Values taken from paper PMC11527929 (European Journal of Nuclear Medicine and Molecular Imaging, 2024).
